The numbers were not newly measured in article PMC9260974 (BMC Pharmacology & Toxicology, 2022), which cites them from elsewhere.

The conditions of this data set: in vivo, po; cited from earlier work.

Molecules are shown by their SMILES.

With `C[C@H](CS)C(=O)N1CCC[C@H]1C(=O)O` [captopril], the “Reduction of bioavailability by food” value is given as 35-50%.
